Source: patent publication US20250298027A1, “METHOD OF EVALUATING SMALL MOLECULE DISTRIBUTION USING TELLUROPHENE ANALOGUES” (THE GOVERNING COUNCIL OF THE UNIVERSITY OF TORONTO, priority 2022, published 2025)
“And” between values parts separate entries of the source, which are not always exact repeats. Equal values may be shown once. Read-outs that look alike come from different tables or passages of the source. Values belong to the compound of their own block, whether it stands above or below them.

What was measured:
Top2 [1] = settings: fluorescence anisotropy and DNA relaxation gel assays; read-out: IC50 of teniposide in literature; cited from earlier work
pH2AX^Ser139 [2] = assay: pH2AX immunohistochemistry of PANC-1 xenograft tumour sections; type: in vivo, mice; settings: 20 mg/kg IP, 2 hours
Experimental: PANC-1 xenograft-bearing mice were injected with either teniposide or the Te-teniposide analogue 1 IP. A dose of 20 mg/kg was selected based on literature reports detailing teniposide drug delivery strategies. After 2 hours, mice were sacrificed and tissues of interest were harvested, formalin fixed, and paraffin embedded. Tissue sections (5 um) were cut and mounted onto microscopy slides. The expression of pH2AX^Ser139 levels were first assessed by immunohistochemistry. Serial sections derived from PANC-1 xenograft tumours were stained with primary antibody and subsequently HRP-conjugated secondary antibody for standard brown staining. DSBs are indicated by large, discrete pH2AX^Ser139 foci. Representative images of immunostained slides show increased pH2AX^Ser139 levels in treated mice relative to saline injected control with clear, punctate staining (FIG. 7).

HL-60 cells = assay: WST-1 viability assay in HL-60 cells; type: cell-based; settings: Homo sapiens, HL-60; 24 hours, maximum concentration of 50 μM; read-out: inhibition of proliferation of HL-60 cells
Experimental: The toxicity of 1 was compared to teniposide in HL-60 cells after incubation for 24 hours using a WST-1 viability assay.
WST-1 metabolic cytotoxicity assay: HL-60 cells (ATCC® CCL-240TM) were maintained in DMEM media with 2 mM L-glutamine (Gibco) supplemented with 20% calf serum and 100× dilution of penicillin-streptomycin solution (Gibco). Cells were maintained at 37° C. in a humidified atmosphere of 5% CO2 in air. HL-60 cells (100 pL) were seeded into a 96 well clear at a density of 5×10^5 cells/mL. Cells were treated with either DMSO or appropriate inhibitor from DMSO stocks. […] Cells were incubated for 24 h at 37° C. under a 5% CO2 atmosphere. WST-1 reagent (10 pL; Roche Diagnostics, 05015944001) was added to each well and gently mixed by pipetting. Cells were incubated for 1 h at 37° C. under 5% CO2 atmosphere. UV-vis absorbance measurements of each well at 450 nm was recorded using a TECAN Safire 2 plate reader. Data was background corrected against wells that contained cell growth media without cells and WST-1. Experiment was performed in triplicate.

Top2 [3] = molecular target: T1, Top2 (Homo sapiens, UniProt P11388); assay: Top2 decatenation assay using kinetoplast DNA; type: biochemical; settings: 5, 10, 25 and 50 μM
T1 construct: purchased TopoGEN, Inc
T1 sequence (P11388 whole entry): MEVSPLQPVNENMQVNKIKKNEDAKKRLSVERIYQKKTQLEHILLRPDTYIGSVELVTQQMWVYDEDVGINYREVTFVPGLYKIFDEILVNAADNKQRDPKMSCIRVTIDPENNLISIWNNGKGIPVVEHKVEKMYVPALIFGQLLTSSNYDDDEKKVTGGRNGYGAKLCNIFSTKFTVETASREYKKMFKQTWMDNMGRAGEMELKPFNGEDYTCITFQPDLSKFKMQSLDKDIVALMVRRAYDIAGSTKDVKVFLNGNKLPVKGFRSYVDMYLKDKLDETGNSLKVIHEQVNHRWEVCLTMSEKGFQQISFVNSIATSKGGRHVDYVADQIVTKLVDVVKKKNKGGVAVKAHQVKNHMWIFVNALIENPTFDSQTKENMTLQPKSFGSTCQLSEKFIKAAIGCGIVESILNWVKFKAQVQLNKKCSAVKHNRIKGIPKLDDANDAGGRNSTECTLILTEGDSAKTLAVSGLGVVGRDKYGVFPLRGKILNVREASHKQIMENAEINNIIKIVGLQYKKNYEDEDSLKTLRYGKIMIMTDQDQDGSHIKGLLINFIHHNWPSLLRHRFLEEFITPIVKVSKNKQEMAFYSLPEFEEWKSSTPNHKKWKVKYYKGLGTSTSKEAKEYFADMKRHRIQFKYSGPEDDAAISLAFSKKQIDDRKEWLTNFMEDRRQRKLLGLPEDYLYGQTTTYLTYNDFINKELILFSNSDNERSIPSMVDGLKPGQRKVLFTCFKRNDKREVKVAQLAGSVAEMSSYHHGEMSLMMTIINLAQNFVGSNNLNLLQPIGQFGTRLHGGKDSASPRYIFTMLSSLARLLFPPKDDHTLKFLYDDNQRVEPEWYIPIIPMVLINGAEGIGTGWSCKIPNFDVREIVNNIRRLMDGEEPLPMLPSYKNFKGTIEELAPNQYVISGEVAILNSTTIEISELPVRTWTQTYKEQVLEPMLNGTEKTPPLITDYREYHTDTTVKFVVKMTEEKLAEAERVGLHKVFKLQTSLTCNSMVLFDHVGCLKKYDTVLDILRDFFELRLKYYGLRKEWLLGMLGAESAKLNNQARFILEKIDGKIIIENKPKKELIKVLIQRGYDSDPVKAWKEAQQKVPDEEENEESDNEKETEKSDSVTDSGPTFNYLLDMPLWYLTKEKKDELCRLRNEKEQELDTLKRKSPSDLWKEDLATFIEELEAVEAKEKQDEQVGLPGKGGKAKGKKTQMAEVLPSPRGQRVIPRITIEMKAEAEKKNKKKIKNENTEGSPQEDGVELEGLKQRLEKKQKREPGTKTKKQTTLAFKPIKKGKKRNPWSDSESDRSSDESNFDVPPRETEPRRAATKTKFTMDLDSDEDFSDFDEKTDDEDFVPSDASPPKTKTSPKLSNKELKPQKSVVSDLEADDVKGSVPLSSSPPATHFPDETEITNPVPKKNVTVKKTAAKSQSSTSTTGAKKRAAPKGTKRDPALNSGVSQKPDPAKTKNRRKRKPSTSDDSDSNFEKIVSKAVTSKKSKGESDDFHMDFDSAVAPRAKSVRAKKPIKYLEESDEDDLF
Experimental: The relative Top2 inhibitory activity of 1 in comparison to teniposide was evaluated in decatenation assays using kinetoplast DNA (kDNA). Decatenation of the DNA, catalyzed by Top2, can be readily resolved using agarose gel electrophoresis.
Top2 decatenation assay: The assay was performed according to manufacturer's protocol (TopoGEN, Inc.). The total reaction volume was 20 μL of assay buffer (120 mM KCl, 50 mM Tris-HCl, 10 mM MgCl2, 0.5 mM DTT, 0.5 mM ATP, and 30 μg/mL BSA) and 120 ng of kinetoplast DNA (kDNA) substrate. One unit of TopoII enzyme in was added to reaction microfuge tubes in the presence or absence of inhibitor. The reaction was incubated for 30 min at 37° C. The reaction was stopped by addition of 5 μL of stop buffer (5% sarkosyl, 0.025% bromophenolblue, and 50% glycerol). The samples were then analyzed using electrophoresis using a 1% agarose gel in Tris-borate-EDTA buffer with 0.5 pg/mL ethidium bromide stain. Gels were imaged using Syngene G: Box Gel Imager (Chemi-XT4 GENESys software with preset for ethidium bromide stained agarose gels). Band intensities were analyzed using ImageJ software.

PANC-1 cells = assay: alamarBlue viability assay in PANC-1 cells; type: cell-based, Human; settings: maximum dose of 25 μM, 72 hours exposure
Experimental: Similarly, PANC1 cells were characterized for later in vivo experiments. Using an alamarBlue viability assay and a proliferative assay, PANC-1 cells were incubated with 1 or teniposide.
AlamarBlue assay: PANC-1 cells were seeded into black, clear-bottom 96-well assay plates (Corning; CLS3603) and incubated for 24 hours. The medium was replaced with […] of teniposide or compound 1. After 72 hours exposure to drug, alamarBlue (Thermo Fisher Scientific; DAL1100) cell viability reagent was added and incubated for 4 hours at 37° C. Fluorescence intensity was measured using an excitation wavelength of 560 nm and an emission of 590 nm. Cell viability was calculated by normalizing to an untreated control.

pH2AX^Ser139 [4] = assay: pH2AX Western blotting in PANC-1 cells; type: cell-based, Human; settings: 1 μM, 24 and 48 hours
Experimental: Next, the ability of 1 to induce DSBs—the dominant type of DNA damage resulting from Top2 inhibition was investigated. In response to DSBs, a cascade of DNA repair mechanisms are triggered, including-phosphorylation of the histone variant H2AX at Ser139. Thus, the level of pH2AX^Ser139 serves as a reliable marker for Top2-linked DSBs. Western blotting was used to measure pH2AX^Ser139 in PANC-1 cells treated with 1 μM of either 1 or teniposide for 24 and 48 hours.
pH2AX Blotting: PANC-1 cells (0.5×10^6) cells were seeded in 60 mm plastic petri dishes (Corning Inc. NY) and incubated for 18 h. The spent medium is removed and replaced with fresh medium containing drug ([…]) and incubated for either 24 or 48h. Control cells were treated with DMSO only. The cells were then lysed with RIPA buffer (25 mM Tris·HCl PH 7.6, 150 mM NaCl, 1% NP-40, 1% sodium deoxycholate, 0.1% SDS) (ThermoFisher Scientific) containing Halt Protease Inhibitor Cocktail (Cat. No. 78410) and Halt Phosphatase Inhibitor Cocktail (Cat. No. 78420) as per manufacturer's protocol. […] Antibodies (Abcam, Cambridge, MA) targeting the following proteins were used H2AX (S139) (ab11174, polyclonal) and β-tubulin (ab6046, polyclonal).

[5] = mice, depending on route of administration and dosing regimen; cited from earlier work
Jurkat cells [6] = assay: Cell viability in Jurkat cells (WST-1); type: cell-based
Experimental: In Jurkat cells treated with increasing concentrations of TeCar 7b, a concentration-dependent reduction in overall cell viability was observed (Table 1). When compared to Carfilzomib, similar concentrations of 7b (Te-Car) were needed to produce a 50% reduction in Jurkat cell viability.
Jurkat cells (CRL-2899) were purchased from ATCC were maintained in Rosewell Park Memorial Institute (RPMI) media supplemented with 10% fetal bovine serum (FBS) and 1% penicillin/streptomycin in a humidified 37° C. incubator with 5% CO2 (g), and cultured as per ATCC guidelines in culture flasks purchased from Starstedt.
Jurkat cells, at a concentration of approximately 12 500 cells/mL, were seeded in a 96 well plate in complete media in dosed with increasing concentrations (0-200 nM) of Carfilzomib or 7b (100 ul final volume) and left to incubate for 44 hours. Each concentration was repeated in triplicate. 10 uL of WST-1 was then added to each well, and the plate was allowed to incubate for 2 hours before the absorbance at 440 nm was measured. Absorbance signal in 100 uL complete media+10 uL WST-1 was first subtracted from each well before plotting the absorbance signal vs log (concentration). The concentration needed to see a 50% reduction in absorbance signal was then determined using GraphPad Prism software.

Jurkat cells [7] = assay: 7b and 8b incorporation into living Jurkat cells with or without Carfilzomib (CyTOF); type: cell-based; settings: 1 hour
Experimental: Co-dosing of cells with Te-Car 7b and Car lead to an approximately 50% reduction in Te labelling confirming the on-target labelling of modified compound (FIG. 10). This evidence supports that TeCar can be used to monitor Carfilzomib's target engagement in a more complex and disease-relevant samples.
Jurkat cells were seeded in […] plastic culture flasks at a concentration of approximately 5 million cells/mL for 24 hours prior to dosing. The cells were dosed with either Carfilzomib, 7b, or 8b at a final concentration of 500 nM, or a combination of Carfilzomib/7b (500 nM each), Carfilzomib/8b (500 nM each), or a DMSO control (final percentage of 0.5%) in complete media for 1 hour.
The media was then immediately removed, and the cells resuspended in 3 mL of cold phosphate-buffered saline (PBS), before being aliquoted into three 1 mL aliquots per each dosing regime. The samples were then prepped for CYTOF® analysis.
Briefly, each sample aliquot was washed three times with cold PBS (1 mL×3). The cells were then fixed, permeabilized, and stained with Cell-ID™ Intercalator-Ir stain in PBS (1 mL) for 1 hour at rt. […]
CYTOF® analysis was conducted the following day. […] The average ^128Te signal in the population of cells (events positive for 191 Ir and 193Ir signal) for each sample was determined.

- inhibition of the decatenation reaction (Top2 [3]): dose-dependent inhibition
Compound: COc1cc([C@@H]2c3cc4c(cc3[C@@H](O[C@@H]3O[C@@H]5CO[C@@H](c6cccs6)O[C@H]5[C@H](O)[C@H]3O)[C@H]3COC(=O)[C@H]23)OCO4)cc(OC)c1O [teniposide, reference compound]
- IC50 (Top2 [1]): 1300 to 9800 nM
- pH2AX^Ser139 levels in tumour sections relative to saline injected control (pH2AX^Ser139 [2]): increased
- inhibition at 50 µM (HL-60 cells): ≤ 60%
- loss of cell viability in PANC-1 cells (PANC-1 cells): almost complete loss of cell viability
- levels of pH2AX^Ser139 relative to DMSO-treated control (pH2AX^Ser139 [4]): Increased levels
- half-life [5]: 1 to 5 h

- IC50 (Jurkat cells [6]; 44 hours, WST-1, Biol. Rep 1-3, read-out: IC50, viability of Jurkat cells, single biological replicate): 9.99 nM and 9.41 nM
- IC50 (Jurkat cells [6]; Homo sapiens, Jurkat, 44 h, WST-1, Biol. Rep 1-3, read-out: IC50, viability of Jurkat cells, single biological replicate): 9.13 nM
- IC50 (Jurkat cells [6]; Homo sapiens, Jurkat, 44 h, WST-1, average of 3 biological replicates, read-out: IC50, viability of Jurkat cells, Average +/− SD): 9.51 nM
Compound: CC(C)C[C@H](NC(=O)[C@H](CCc1ccccc1)NC(=O)CN1CCOCC1)C(=O)N[C@@H](Cc1ccccc1)C(=O)N[C@@H](CC(C)C)C(=O)[C@@]1(C)CO1 [Carfilzomib, reference compound]

Compound: CC(C)C[C@H](NC(=O)[C@H](CCc1ccccc1)NC(=O)CN1CCOCC1)C(=O)N[C@@H](Cc1ccc[te]1)C(=O)N[C@@H](CC(C)C)C(=O)[C@@]1(C)CO1 (single isomer, unassigned) [7b]
- IC50 (Jurkat cells [6]; Homo sapiens, Jurkat, 44 h, read-out: IC50, viability of Jurkat cells, Average +/− SD, 44 hours, WST-1, average of 3 biological replicates): 9.71 nM
- IC50 (Jurkat cells [6]; Homo sapiens, Jurkat, 44 h, read-out: IC50, viability of Jurkat cells, single biological replicate, 44 hours, WST-1, Biol. Rep 1-3): 9.48 nM
- IC50 (Jurkat cells [6]; read-out: IC50, viability of Jurkat cells, single biological replicate, 44 hours, WST-1, Biol. Rep 1-3): 9.87 nM and 9.78 nM
- reduction in Te labelling on co-dosing with Carfilzomib (Jurkat cells [7]; 7b and Carfilzomib 500 nM each, ^128Te): approximately 50%
- accumulation of tellurium within the cells (Jurkat cells [7]; mass cytometry): activity dependent accumulation
